Laboratory results reported in patent publication US10385069B2, “Imidazo[2,1-B]thiazole and 5,6-dihydroimidazo[2,1-B]thiazole derivatives useful as S100-inhibitors” (Active Biotech AB, priority 2015, dated 2019).

Target: T1, interaction between biotinylated human S100A9 and human RAGE-Fc (Homo sapiens, UniProt P06702)
T1 construct: made in house; host or cells: E. coli
T1 sequence (P06702 1-114): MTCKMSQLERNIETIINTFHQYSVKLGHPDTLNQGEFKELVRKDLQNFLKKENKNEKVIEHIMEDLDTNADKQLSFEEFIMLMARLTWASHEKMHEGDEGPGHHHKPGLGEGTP
Test: AlphaScreen inhibition assay, biot-hS100A9:hRAGE-Fc
Assay type: binding
Details: biot-hS100A9 pre-incubated with compound 1 h, assay buffer with CaCl2 and ZnCl2
Outline: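 Biotinylated human S100A9, preincubated with compound, binds human RAGE-Fc on protein A Acceptor beads in HBS-P with CaCl2 and ZnCl2; streptavidin Donor beads added, AlphaScreen signal read. Protein levels set by cross-titration; beads 20 μg/mL final. Percent inhibition versus DMSO control; IC50 from varied compound concentrations.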

IC50 [nM] | SMILES
430 | CC1(C)Cc2c(sc3nc(C(=O)O)c(N4CCOCC4)n23)C(C)(C)C1 [Example 233, 9,9,11,11-Tetramethyl-3-(morpholin-4-yl)-7-thia-2,5-diazatricyclo[6.4.0.0^2,6]dodeca-1(8),3,5-triene-4-carboxylic acid]
90 | Cc1c(C(=O)O)nc2sc3c(Cl)c(F)ccc3n12 [Example 234, 9-Chloro-10-fluoro-3-methyl-7-thia-2,5-diazatricyclo[6.4.0.0^2,6]dodeca-1(8),3,5,9,11-pentaene-4-carboxylic acid]
1680 | CC1(C)Cc2c(sc3nc(C(=O)O)c(C4CNC4)n23)C(C)(C)C1 [Example 235, 3-(Azetidin-3-yl)-9,9,11,11-tetramethyl-7-thia-2,5-diazatricyclo[6.4.0.0^2,6]dodeca-1(8),3,5-triene-4-carboxylic acid]
200 | O=C(O)c1nc2sc3c(Cl)c(F)ccc3n2c1N1CCOCC1 [Example 238, 9-Chloro-10-fluoro-3-(morpholin-4-yl)-7-thia-2,5-diazatricyclo[6.4.0.0^2,6]dodeca-1(8),3,5,9,11-pentaene-4-carboxylic acid]
430 | O=C(O)C1CN2C(=N1)Sc1c2ccc(Br)c1Cl (centres unmarked) [Example 240, 10-Bromo-9-chloro-7-thia-2,5-diazatricyclo[6.4.0.0^2,6]dodeca-1(8),5,9,11-tetraene-4-carboxylic acid]
690 | O=C(O)c1cn2c(n1)sc1c(Cl)c(Cl)cc(OCCN3CCOCC3)c12 [Example 241, 9,10-Dichloro-12-[2-(morpholin-4-yl)ethoxy]-7-thia-2,5-diazatricyclo[6.4.0.0^2,6]dodeca-1(8),3,5,9,11-pentaene-4-carboxylic acid]
1390 | CC(C)(C)C1CCc2c(sc3nc(C(=O)O)c(CN4CCOCC4)n23)C1 (centres unmarked) [Example 242, 10-tert-Butyl-3-(morpholin-4-ylmethyl)-7-thia-2,5-diazatricyclo[6.4.0.0^2,6]dodeca-1(8),3,5-triene-4-carboxylic acid]
210 | O=C(O)c1cn2c(n1)sc1c(Cl)c(Br)ccc12 [Example 243, 10-Bromo-9-chloro-7-thia-2,5-diazatricyclo[6.4.0.0^2,6]dodeca-1(8),3,5,9,11-pentaene-4-carboxylic acid]
1130 | CC(C)(C)C1CCc2c(sc3nc(C(=O)O)c(CN4CCCCC4=O)n23)C1 (centres unmarked) [Example 244, 10-tert-Butyl-3-[(2-oxopiperidin-1-yl)methyl]-7-thia-2,5-diazatricyclo[6.4.0.0^2,6]dodeca-1(8),3,5-triene-4-carboxylic acid]
270 | Cc1c(C(=O)O)nc2sc3c(n12)CC(C)(C)CC3(C)C [Example 245, 3,9,9,11,11-Pentamethyl-7-thia-2,5-diazatricyclo[6.4.0.0^2,6]dodeca-1(8),3,5-triene-4-carboxylic acid]
600 | CC1(C)Cc2c(sc3nc(C(=O)O)c(CN4CCOCC4)n23)C(C)(C)C1 [Example 246, 9,9,11,11-Tetramethyl-3-(morpholin-4-ylmethyl)-7-thia-2,5-diazatricyclo[6.4.0.0^2,6]dodeca-1(8),3,5-triene-4-carboxylic acid]
1530 | COc1ccccc1-c1c(C(=O)O)nc2sc3c(n12)CC(C)(C)CC3(C)C [Example 247, 3-(2-Methoxyphenyl)-9,9,11,11-tetramethyl-7-thia-2,5-diazatricyclo[6.4.0.0^2,6]dodeca-1(8),3,5-triene-4-carboxylic acid]
1000 | O=C(O)c1cn2c(n1)sc1c(Cl)c(N3CCCC3)ccc12 [Example 248, 9-Chloro-10-(pyrrolidin-1-yl)-7-thia-2,5-diazatricyclo[6.4.0.0^2,6]dodeca-1(8),3,5,9,11-pentaene-4-carboxylic acid]
690 | CC(C)CC1(C(=O)O)CN2C(=N1)Sc1c2ccc(F)c1Cl (centres unmarked) [Example 249, 9-Chloro-10-fluoro-4-(2-methylpropyl)-7-thia-2,5-diazatricyclo[6.4.0.0^2,6]dodeca-1(8),5,9,11-tetraene-4-carboxylic acid]
670 | CC1(C(=O)O)CN2C(=N1)Sc1c2ccc(F)c1Cl (centres unmarked) [Example 250, 9-Chloro-10-fluoro-4-methyl-7-thia-2,5-diazatricyclo[6.4.0.0^2,6]dodeca-1(8),5,9,11-tetraene-4-carboxylic acid]
290 | O=C(O)c1cn2c(n1)sc1c(Cl)c(C3CC3)ccc12 [Example 252, 9-Chloro-10-cyclopropyl-7-thia-2,5-diazatricyclo[6.4.0.0^2,6]dodeca-1(8),3,5,9,11-pentaene-4-carboxylic acid]
1680 | CC(C)(C)C1CCc2c(sc3nc(C(=O)O)c(Br)n23)C1 (centres unmarked) [Example 253, 3-Bromo-10-tert-butyl-7-thia-2,5-diazatricyclo[6.4.0.0^2,6]dodeca-1(8),3,5-triene-4-carboxylic acid]
1150 | COc1ccc(-c2c(C(=O)O)nc3sc4c(n23)CC(C)(C)CC4(C)C)cc1 [Example 254, 3-(4-Methoxyphenyl)-9,9,11,11-tetramethyl-7-thia-2,5-diazatricyclo[6.4.0.0^2,6]dodeca-1(8),3,5-triene-4-carboxylic acid]
1150 | CC(=O)NCc1c(C(=O)O)nc2sc3c(n12)CCC(C(C)(C)C)C3 (centres unmarked) [Example 255, 10-tert-Butyl-3-(acetamidomethyl)-7-thia-2,5-diazatricyclo[6.4.0.0^2,6]dodeca-1(8),3,5-triene-4-carboxylic acid]
500 | CC(C)(C)C1CCc2c(sc3nc(C(=O)O)c(CO)n23)C1 (centres unmarked) [Example 256, 10-tert-Butyl-3-(hydroxymethyl)-7-thia-2,5-diazatricyclo[6.4.0.0^2,6]dodeca-1(8),3,5-triene-4-carboxylic acid]
890 | CON(C)Cc1c(C(=O)O)nc2sc3c(n12)CCC(C(C)(C)C)C3 (centres unmarked) [Example 257, 10-tert-Butyl-3-{[methoxy(methyl)amino]methyl}-7-thia-2,5-diazatricyclo[6.4.0.0^2,6]dodeca-1(8),3,5-triene-4-carboxylic acid]
510 | CC1(C)Cc2c(sc3nc(C(=O)O)c(C4CC4)n23)C(C)(C)C1 [Example 258, 3-Cyclopropyl-9,9,11,11-tetramethyl-7-thia-2,5-diazatricyclo[6.4.0.0^2,6]dodeca-1(8),3,5-triene-4-carboxylic acid]
550 | O=C(O)c1cn2c(n1)sc1c(Cl)c(Cl)c(OCCN3CCOCC3)cc12 [Example 261, 9,10-Dichloro-11-[2-(morpholin-4-yl)ethoxy]-7-thia-2,5-diazatricyclo[6.4.0.0^2,6]dodeca-1(8),3,5,9,11-pentaene-4-carboxylic acid]
770 | O=C(O)C1(Cc2ccccc2)CN2C(=N1)Sc1c2ccc(F)c1Cl (centres unmarked) [Example 262, 4-Benzyl-9-chloro-10-fluoro-7-thia-2,5-diazatricyclo[6.4.0.0^2,6]dodeca-1(8),5,9,11-tetraene-4-carboxylic acid]
1060 | O=C(O)C1(CO)CN2C(=N1)Sc1c2ccc(F)c1Cl (centres unmarked) [Example 263, 9-Chloro-10-fluoro-4-(hydroxymethyl)-7-thia-2,5-diazatricyclo[6.4.0.0^2,6]dodeca-1(8),5,9,11-tetraene-4-carboxylic acid]
950 | O=C(O)c1cn2c(n1)sc1c(Cl)c(N3CC(F)(F)C3)ccc12 [Example 266, 9-Chloro-10-(3,3-difluoroazetidin-1-yl)-7-thia-2,5-diazatricyclo[6.4.0.0^2,6]dodeca-1(8),3,5,9,11-pentaene-4-carboxylic acid]
